{"source": "patent US20130130306A1", "about": "“ZN (II) BASED COLORIMETRIC SENSOR AND PROCESS FOR THE PREPARATION THEREOF” (COUNCIL OF SCIENTIFIC & INDUSTRIAL RESEARCH, priority 2010, published 2013)", "origin": "cited, not measured here", "system": "living microbes (eukaryotes and prokaryotes)", "settings": "drug carrier, general knowledge; cited from earlier work", "data": [{"smiles": "OC[C@H]1O[C@@H]2O[C@H]3[C@H](O)[C@@H](O)[C@@H](O[C@H]4[C@H](O)[C@@H](O)[C@@H](O[C@H]5[C@H](O)[C@@H](O)[C@@H](O[C@H]6[C@H](O)[C@@H](O)[C@@H](O[C@H]7[C@H](O)[C@@H](O)[C@@H](O[C@H]1[C@H](O)[C@H]2O)O[C@@H]7CO)O[C@@H]6CO)O[C@@H]5CO)O[C@@H]4CO)O[C@@H]3CO", "note": "[α-CD, α-cyclodextrin]", "values": [{"measurement": "toxicity to the living cell (known)", "result": "completely non-toxic"}]}]}
